Data from PubChem BioAssay (NCI).
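Cultured in 96-well plates, cells were exposed to test compound for 48 hours across five concentrations. TGI: total growth inhibition.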

Experiments:
Experiment in all cases: NCI-60 cell line screen, 48 h
IGROV1 ovarian = system: IGROV1 ovarian
DU-145 prostate = system: DU-145 prostate
CCRF-CEM leukemia = system: CCRF-CEM leukemia
SK-OV-3 ovarian = system: SK-OV-3 ovarian
BT-549 breast = system: BT-549 breast
OVCAR-4 ovarian = system: OVCAR-4 ovarian
HCT-15 colon = system: HCT-15 colon
UACC-62 melanoma = system: UACC-62 melanoma
K-562 leukemia = system: K-562 leukemia
NCI-H522 lung = system: NCI-H522 lung
HOP-62 NSCLC = system: HOP-62 NSCLC
UACC-257 melanoma = system: UACC-257 melanoma
SF-268 CNS = system: SF-268 CNS
CAKI-1 renal = system: CAKI-1 renal
U251 CNS = system: U251 CNS
HT29 colon = system: HT29 colon
HOP-92 NSCLC = system: HOP-92 NSCLC

Measured: TGI

CC(=O)O[C@H]1C(=O)[C@@]2(C)[C@H]([C@H](OC(=O)c3ccccc3)[C@]3(O)C[C@H](OC(=O)[C@H](O)[C@@H](NC(=O)C(C)(O)C(C)O)c4ccccc4)C(C)=C1C3(C)C)[C@]1(OC(C)=O)CO[C@@H]1C[C@@H]2O (stereo partly specified)
0.341 µM: NCI-H522 lung
5.21 µM: HOP-62 NSCLC
> 50 µM: IGROV1 ovarian | CCRF-CEM leukemia | OVCAR-4 ovarian | HCT-15 colon | UACC-62 melanoma | K-562 leukemia | UACC-257 melanoma | SF-268 CNS | CAKI-1 renal
10.9 µM: SK-OV-3 ovarian
3.45 µM: BT-549 breast
> 12.1 µM: DU-145 prostate

COc1cc(CO)cc2c1[nH]c1ccccc12
> 25 µM: U251 CNS | IGROV1 ovarian | CCRF-CEM leukemia | HT29 colon | SK-OV-3 ovarian | OVCAR-4 ovarian | HOP-92 NSCLC | HCT-15 colon | UACC-62 melanoma | K-562 leukemia | NCI-H522 lung | HOP-62 NSCLC | SF-268 CNS

Cc1ccc([N+](=O)[O-])cc1NC(=O)/C(CC(=O)c1sc(C(N)=S)nc1C)=N\N
76.4 µM: NCI-H522 lung
> 100 µM: U251 CNS | IGROV1 ovarian | HT29 colon | SK-OV-3 ovarian | OVCAR-4 ovarian | HOP-92 NSCLC | HCT-15 colon | UACC-62 melanoma | K-562 leukemia | HOP-62 NSCLC | UACC-257 melanoma | SF-268 CNS | CAKI-1 renal
79.2 µM: CCRF-CEM leukemia

c1ccc(C[N+]23C(CC[C@H]2c2ccccc2)CC[C@H]3c2ccccc2)cc1 (stereo partly specified)
52.3 µM: HOP-92 NSCLC
> 100 µM: U251 CNS | IGROV1 ovarian | DU-145 prostate | CCRF-CEM leukemia | HT29 colon | SK-OV-3 ovarian | OVCAR-4 ovarian | K-562 leukemia | NCI-H522 lung | HOP-62 NSCLC | SF-268 CNS | CAKI-1 renal
90.3 µM: UACC-257 melanoma

CCOC(=O)c1nc2ccc(C(F)(F)F)cc2nc1NCc1ccc(F)cc1
29.2 µM: HOP-92 NSCLC
77.3 µM: IGROV1 ovarian
88.9 µM: NCI-H522 lung
90.9 µM: OVCAR-4 ovarian
> 100 µM: U251 CNS | DU-145 prostate | CCRF-CEM leukemia | HT29 colon | SK-OV-3 ovarian | HCT-15 colon | UACC-62 melanoma | K-562 leukemia | HOP-62 NSCLC | UACC-257 melanoma | CAKI-1 renal
53.9 µM: SF-268 CNS

O=C1C2CCCCC2C(=O)N1n1c(Cc2ccccc2)n[nH]c1=O (stereo unspecified)
> 100 µM: U251 CNS | IGROV1 ovarian | CCRF-CEM leukemia | HT29 colon | SK-OV-3 ovarian | BT-549 breast | OVCAR-4 ovarian | HOP-92 NSCLC | HCT-15 colon | UACC-62 melanoma | K-562 leukemia | NCI-H522 lung | HOP-62 NSCLC | UACC-257 melanoma | SF-268 CNS | CAKI-1 renal

O=C(O)c1ccc2[nH]c(=O)oc2c1
> 100 µM: U251 CNS | IGROV1 ovarian | DU-145 prostate | CCRF-CEM leukemia | HT29 colon | SK-OV-3 ovarian | BT-549 breast | HCT-15 colon | UACC-62 melanoma | K-562 leukemia | HOP-62 NSCLC | UACC-257 melanoma | SF-268 CNS | CAKI-1 renal

C[C@@H]1C[C@@H]2C(=O)N(c3ccccc3)C(=O)[C@@H]2c2[nH]c3ccc(Br)cc3c21
57.9 µM: OVCAR-4 ovarian
62.2 µM: HOP-92 NSCLC
78.5 µM: NCI-H522 lung
44.5 µM: SK-OV-3 ovarian
> 100 µM: IGROV1 ovarian | CCRF-CEM leukemia | HCT-15 colon | UACC-62 melanoma | K-562 leukemia | UACC-257 melanoma | SF-268 CNS | CAKI-1 renal
47.6 µM: HOP-62 NSCLC
38.8 µM: U251 CNS
